Source: patent US20080032978A1, “SOLUBLE EPOXIDE HYDROLASE INHIBITORS” (Arete Therapeutics, Inc., priority 2006, published 2008)

Columns and labels:
[1] = tested on: soluble epoxide hydrolase (sEH); assay: Fluorescent assay for mouse and human soluble epoxide hydrolase (CMNPC substrate); format: biochemical
From the text: Fluorescent Assay for Mouse and Human Soluble Epoxide Hydrolase Recombinant mouse sEH (MsEH) and human sEH (HsEH) were produced in a baculovirus expression system as previously reported. Grant et al., J. Biol. Chem., 268:17628-17633 (1993); Beetham et al., Arch. Biochem. Biophys., 305:197-201 (1993). The expressed proteins were purified from cell lysate by affinity chromatography. Wixtrom et al., Anal. […] Protein concentration was quantified using the Pierce BCA assay using bovine serum albumin as the calibrating standard. […] Solutions: Bis/Tris HCl 25 mM 7.0 containing 0.1 mg/mL of BSA (buffer […] at 0.25 mM in DMSO. Mother solution of enzyme in buffer A (Mouse sEH at 6 μg/mL and Human sEH at 5 μg/mL). Inhibitor dissolved in DMSO at the appropriate concentration. Protocol: In a black 96 well plate, fill all the wells with 150 μL of buffer A. Add 2 μL of DMSO in well A2 and A3, and then add 2 μL of inhibitor solution in A1 and A4 through A12. Add 150 μL of buffer A in a row A, then mix several time and transfer 150 μL to row B. Repeat this operation up to row H. The 150 μL removed from row H go to the trash. Add 20 μL of buffer A in column 1 and 2, then add 20 μL of enzyme solution to column 3 to 12. Incubate the plate for 5 minutes in the plate reader at 30° C. During incubation prepare the working solution of substrate by mixing 3.68 mL of buffer A (4×0.920 mL) with 266 μL (2×133 μL) of substrate solution). At t=0, add 30 μL of working substrate solution with multi-channel pipette labeled “Briggs 303” and start the reading ([S]final: 5 μM). Read with ex: 330 nm (20 nm) and em: 465 nm (20 nm) every 30 second for 10 minutes. The velocities are used to analyze and calculate the IC50s.

For `O=C(Nc1ccc(C(=O)N2CCC(C(=O)O)CC2)cc1)NC12CC3CC(CC(C3)C1)C2` [Compound 12, 1-[4-(3-Adamantan-1-yl-ureido)-benzoyl]-piperidine-4-carboxylic acid], the melting point was 272 to 275 °C and the “% I” value ([1]; Conc of I 5000 nM) was 99%.

In the case of `COCCN1CCN(C(=O)c2ccc(NC(=O)Nc3ccc(F)cc3)cc2)CC1` [Compound 25, 1-(4-Fluoro-phenyl)-3-{4-[4-(2-methoxy-ethyl)-piperazine-1-carbonyl]-phenyl}-urea], the melting point is reported as 248 to 250 °C and the “% I” value ([1]; Conc of I 500 nM) is reported as 77%.

In the case of `COCCN1CCN(C(=O)c2ccc(NC(=O)Nc3ccc(OC(F)(F)F)cc3)cc2)CC1` [Compound 28, 1-{4-[4-(2-Methoxy-ethyl)-piperazine-1-carbonyl]-phenyl}-3-(4-trifluoromethoxy-phenyl)-urea], the melting point is reported as 235 to 240 °C and the “% I” value ([1]; Conc of I 50 nM) is reported as 91%.

With `O=C(Nc1ccc(C(F)(F)F)cc1)Nc1cccc(C(=O)N2CCC(C(=O)O)CC2)c1` [Compound 29, 1-{3-[3-(4-Trifluoromethyl-phenyl)-ureido]-benzoyl}-piperidine-4-carboxylic acid] the melting point was 193 to 197 °C and the “% I” value ([1]; Conc of I 500 nM) was 94%.

With `CN(CC(=O)O)C(=O)C1CCC(NC(=O)NC23CC4CC(CC(C4)C2)C3)CC1` (stereo not drawn) [Compound 36, {[4-(3-Adamantan-1-yl-ureido)-cyclohexanecarbonyl]-methyl-amino}-acetic acid] the melting point was 236 to 240 °C and the “% I” value ([1]; Conc of I 500 nM) was 95%.

In the case of `CN(C)CCN(C)C(=O)c1ccc(NC(=O)NC23CC4CC(CC(C4)C2)C3)cc1` [Compound 37, 4-(3-Adamantan-1-yl-ureido)-N-(2-dimethylamino-ethyl)-N-methyl-benzamide], the melting point is reported as 150 to 156 °C and the “% I” value ([1]; Conc of I 500 nM) is reported as 88%.

With `CN(C)CCN(C)C(=O)c1cccc(NC(=O)NC23CC4CC(CC(C4)C2)C3)c1` [Compound 38, 3-(3-Adamantan-1-yl-ureido)-N-(2-dimethylamino-ethyl)-N-methyl-benzamide] the melting point was 89 to 94 °C and the “% I” value ([1]; Conc of I 500 nM) was 81%.

With `CN(CC(=O)N1CCOCC1)C(=O)c1ccc(NC(=O)Nc2ccc(C(F)(F)F)cc2)cc1` [Compound 39, N-Methyl-N-(2-morpholin-4-yl-2-oxo-ethyl)-4-[3-(4-trifluoromethyl-phenyl)-ureido]-benzamide] the melting point was 226 to 233 °C and the “% I” value ([1]; Conc of I 500 nM) was 86%.

In the case of `O=C(NC1CCCCC1)NC1CCC(C(=O)N2CCOCC2)CC1` (stereo not drawn) [Compound 40, 1-Cyclohexyl-3-[4-(morpholine-4-carbonyl)-cyclohexyl]-urea], the melting point is reported as 159 to 163 °C and the “% I” value ([1]; Conc of I 500 nM) is reported as 92%.
